According to patent publication US20250263404A1, “AMINOPYRIDINES AS ACTIVATORS OF PI3 KINASE” (UCL Business Ltd, priority 2021, published 2025):

Test system: rat sciatic nerve
Assay: Rat sciatic nerve crush injury model
Assay type: in vivo
Conditions: 21 days
Procedure: Stimulated by these observations, we next tested 1938 in the sciatic nerve crush model in the rat, an in vivo model of peripheral nerve injury and regeneration. […] Immediately after the nerve crush (FIG. 5e, i-ii), 1938 was delivered via a single intraneural injection into the proximal crush site (FIG. 5e, iii) and via a minipump implanted adjacent to the nerve (FIG. 5e, iv), loaded with 1938 solution, for continuous delivery for the duration of the experiment. Analyses were conducted 3 weeks after injury.
Adult female Sprague Dawley rats (230-280 g, n=10, Charles River, UK) were anaesthetised by isoflurane inhalation in an induction chamber (5% isoflurane in O2, 0.8 l/min). Anaesthesia was maintained with 1.5-2.5% isoflurane inhalation, and the left sciatic nerve exposed at mid-thigh level.
The nerve was crushed by application of constant pressure using fully closed sterile type 4 tweezers (TAAB) for 15 sec. This was repeated two more times at the same point, with 45° rotation between each crush. The injury site was marked with a 10/0 epineurial non-absorbant suture (Ethicon). Following injury, frozen aliquots of 1938 solution and vehicle were defrosted. A single 2 μl injection of 1938 solution (5 μM in sterile H2O) or vehicle (sterile dH2O) was administered proximal to the crush site with a 10 μl Hamilton syringe. An osmotic minipump (Alzet 1004, Charles River, UK) was also implanted between the muscle layers, adjacent to the nerve oriented with the outlet nearest to the crush site, loaded with 1938 solution (100 μM in sterile H2O) or vehicle (sterile H2O). Animals were randomly assigned to groups (n=5 per group) and one experimenter was kept blind to condition for conducting functional and histological analyses. […]
At the end-point of the experiment (21 days), rats were anaesthetised and the sciatic nerve exposed as described above. […] The MI was manufactured using a previously documented protocol (Lancashire, H. T. et al. J Neural Eng 13, 034001 (2016). Electrode impedance of the MNI was 27.1±19.8 kΩ at 1k Hz. Compound muscle action potential (CMAP) was obtained by sciatic nerve stimulation with square wave pulses of 100 μsec with intensity from 1-10 mA. Stimulus was increased in 0.2 mA steps until muscle response amplitude no longer increased. CMAP amplitude was measured from peak to peak and recorded in triplicate for both the ipsilateral and contralateral side. The CMAP with the largest amplitude was selected for analysis.
A modified multipoint stimulation technique was used to calculate Motor Unit Number Estimation (MUNE) (Shefner, J. M. et al. Muscle & nerve 34, 603-607 (2006); Jacobsen, A. B. et al. J Vis Exp (2018); Arnold, W. D. et al. J Vis Exp (2015)). […] The CMAP was divided by the mean magnitude of SMUPs to quantify MUNE. […]

SMILES: CCN1CCN(c2ccc(Nc3cc(Nc4cccc5c4N(C(C)=O)CC5)ccn3)cc2)CC1 [Example 1938]
- neurofilament- and ChAT-positive axons, treatment versus control (3 mm and 6 mm distal to the crush site): equivalent numbers
- number of ChAT-positive motor axons (distal common peroneal nerve): an increase
- compound muscle action potential (CMAP) recovery (tibialis anterior muscle): greater
- motor unit number estimation (MUNE) (tibialis anterior muscle): increased
